Source: patent US9233965B2, “3,4-dihydropyrrolo[1,2-A]pyrazine-2,8(1H)-dicarboxamide derivatives, preparation thereof and therapeutic use thereof for diseases involving casein kinase 1 epsilon and/or casein kinase 1 delta” (SANOFI, priority 2010, dated 2016)

What follows are molecules tested against casein kinase 1 epsilon (CK1 epsilon) (Homo sapiens (Human), UniProt P49674) (assay: Test A: inhibitory activity on CK1 epsilon, casein phosphorylation assay on ATP-33P filter plate). Details: IC50 values or IC50 ranges (result of several experiments), ATP 10 μM final.
Format: biochemical
Protocol: The capacity of the compounds of the invention to inhibit the phosphorylation of casein by casein kinase 1 epsilon and/or delta may be evaluated according to the procedures described in document US 2005/0 131 012.
Test A: Inhibitory Activity on CK1 Epsilon Measured by Assay on an ATP-^33P Filter Plate
The effect of the compounds on inhibition of the phosphorylation of casein by the enzyme casein kinase 1 epsilon (CK1 epsilon) is measured, using a casein assay via filtration of ATP-^33P in vitro.
Casein kinase 1 epsilon (0.58 mg/ml) is obtained via fermentation and purification processes performed according to methods that are well known to those skilled in the art, or may also be obtained from Invitrogen Corporation™ (human CK1 epsilon).
The compounds are tested at five different concentrations so as to generate IC50 values, i.e. the concentration at which a compound is capable of inhibiting the enzymatic activity by 50%, or alternatively the percentage of inhibition at a concentration of 10 micromolar.
“U”-bottomed Falcon plates are prepared by placing 5 μL of solutions of the compounds according to the invention at concentrations of 10, 1, 0.1, 0.01 or 0.001 μM in different wells. The solutions of the compounds according to the invention at these various concentrations are prepared by diluting in a test buffer (Tris 50 mM pH 7.5, MgCl2 […], DTT 2 mM and EGTA 1 mM) a stock solution in DMSO at a concentration of 10 mM. Next, 5 μL of dephosphorylated casein are added to a final concentration of 0.2 μg/μL, 20 μL of CK1 epsilon to a final concentration of 3 ng/μL, and 20 μL of ATP-^33P to a final concentration of 0.02 μCi/μL mixed with cold ATP (10 μM final—approximately 2×10^6 CPM per well). The final total test volume per well is equal to 50 μL.
The “U”-bottomed Falcon® test plate mentioned above is vortexed, and then incubated at room temperature for 2 hours. After 2 hours the reaction is stopped by adding an ice-cold solution of 65 μL of cold ATP (2 mM) prepared in test buffer.
100 μL of the reaction mixture are then transferred from the “U”-bottomed Falcon® plate into Millipore® MAPH filter plates, preimpregnated with 25 μL of ice-cold 100% TCA.
The Millipore MAPH filter plates are agitated gently and are left to stand at room temperature for at least 30 minutes to precipitate the proteins.
After 30 minutes, the filter plates are sequentially washed and filtered with 2×150 μL of 20% TCA, 2×150 μL of 10% TCA and 2×150 μL of 5% TCA (6 washes in total per plate/900 μL per well).
The plates are left to dry overnight at room temperature. Next, 40 μL of Microscint-20 Packard® scintillation liquid are added per well and the plates are closed in a leaktight manner. The radiation emitted by each well is then measured for 2 minutes in a TopCount NXT Packard® scintillation counter, in which the values of CPM/well are measured.
The percentage inhibition of the capacity of the enzyme to phosphorylate the substrate (casein) is determined for each concentration of test compound. These inhibition data expressed as percentages are used to calculate the IC50 value for each compound compared with the controls.
The kinetic studies determined the KM value for ATP as being 21 μM in this test system.
Table 2 below gives the IC50 values or the IC50 inhibition ranges (result of several experiments) for the phosphorylation of Casein Kinase 1 Epsilon for a number of compounds according to the invention.

Chain of casein kinase 1 epsilon (CK1 epsilon) (P49674 whole entry): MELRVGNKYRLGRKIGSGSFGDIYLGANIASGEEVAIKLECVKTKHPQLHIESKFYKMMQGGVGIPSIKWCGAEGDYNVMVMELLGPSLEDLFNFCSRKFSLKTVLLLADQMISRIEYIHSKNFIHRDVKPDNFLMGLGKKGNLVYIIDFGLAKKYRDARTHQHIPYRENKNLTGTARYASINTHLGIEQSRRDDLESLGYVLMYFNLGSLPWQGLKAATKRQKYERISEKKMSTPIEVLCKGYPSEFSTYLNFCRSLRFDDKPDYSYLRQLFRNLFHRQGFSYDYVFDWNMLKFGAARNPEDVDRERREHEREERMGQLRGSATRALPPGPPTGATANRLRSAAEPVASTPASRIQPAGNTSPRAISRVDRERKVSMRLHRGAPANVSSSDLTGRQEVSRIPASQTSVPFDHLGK

Row | IC50 [nM] | SMILES
1 | < 1 | CC(C)(C)ON=C1CCC(NC(=O)N2CCn3c(Cl)c(-c4cccc(F)c4)c(C(N)=O)c3C2)CC1 (stereo not drawn) [Compound 87, trans-6-chloro-7-(3-fluorophenyl)-N^2-(4-tert-butyloxyimino-cyclohexyl)-3,4-dihydropyrrolo[1,2-a]pyrazine-2,8(1H)-dicarboxamide]
2 | > 1 | C[C@@H]1CC(NC(=O)N2CCn3c(Cl)c(-c4cccc(F)c4)c(C(N)=O)c3C2)C[C@H](C)O1 (stereo partly drawn) [Compound 100, cis-6-chloro-N^2-(2,6-dimethyl-tetrahydro-2H-pyran-4-yl)-7-(3-fluorophenyl)-3,4-dihydropyrrolo[1,2-a]pyrazine-2,8(1H)-dicarboxamide]
3 | 1 to 4 | COc1cccc(-c2c(C(N)=O)c3n(c2Cl)CCN(C(=O)NC(C)(C)C)C3)c1 [Compound 62, tert-butyl-6-chloro-7-(3-methoxyphenyl)-3,4-dihydropyrrolo[1,2-a]pyrazine-2,8(1H)-dicarboxamide]
4 | 958 | CN(C)C(=O)c1cccc(-c2c(C(N)=O)c3n(c2C2CC2)CCN(C(=O)NC(C)(C)C)C3)c1 [Compound 17, N^2-tert-butyl-6-cyclo-propyl-7-[3-(dimethylcarbamoyl)phenyl]-3,4-dihydropyrrolo[1,2-a]pyrazine-2,8(1H)-dicarboxamide]
5 | 25 | CC(C)(C)NC(=O)N1CCn2c(c(C(N)=O)c(-c3ccc(C#N)cc3)c2C2CC2)C1 [Compound 22, N^2-tert-butyl-7-(4-cyanophenyl)-6-cyclo-propyl-3,4-dihydropyrrolo[1,2-a]pyrazine-2,8(1H)-dicarboxamide]
6 | 33 | CC(C)(C)NC(=O)N1CCn2c(c(C(N)=O)c(-c3ccc(OC(F)(F)F)cc3)c2C2CC2)C1 [Compound 44, N^2-tert-butyl-6-cyclo-propyl-7-[4-(trifluoromethoxy)phenyl]-3,4-dihydropyrrolo[1,2-a]pyrazine-2,8(1H)-dicarboxamide]
7 | 7 to 14 | NC(=O)c1c(-c2cccc(F)c2)c(Cl)n2c1CN(C(=O)NC1CCS(=O)(=O)CC1)CC2 [Compound 103, 6-chloro-N^2-(1,1-dioxydotetrahydro-2H-thiopyran-4-yl)-7-(3-fluorophenyl)-3,4-dihydropyrrolo[1,2-a]pyrazine-2,8(1H)-dicarboxamide]
8 | 16 | CC(C)(C)NC(=O)N1CCn2c(c(C(N)=O)c(-c3ccc(OCc4ccc(F)cc4)c(Cl)c3)c2C2CC2)C1 [Compound 42, N^2-tert-butyl-7-{3-chloro-4-[(4-fluorobenzyl)oxy]phenyl}-6-cyclo-propyl-3,4-dihydropyrrolo[1,2-a]pyrazine-2,8(1H)-dicarboxamide]
9 | 49 | CC(C)CNC(=O)N1CCn2c(c(C(N)=O)c(-c3ccccc3)c2C2CC2)C1 [Compound 9, 6-cyclo-propyl-7-phenyl-N^2-(iso-butyl)-3,4-dihydropyrrolo[1,2-a]pyrazine-2,8(1H)-dicarboxamide]
10 | 1 to 3 | COc1ccc(-c2c(C(N)=O)c3n(c2C)CCN(C(=O)NC(C)(C)C)C3)cc1 [Compound 4, N^2-tert-butyl-7-(4-methoxyphenyl)-6-methyl-3,4-dihydropyrrolo[1,2-a]pyrazine-2,8(1H)-dicarboxamide]
11 | 28 to 57 | COc1ccc(-c2c(C(N)=O)c3n(c2C2CC2)CCN(C(=O)NC2CC2)C3)cc1 [Compound 6, N^2-6-di-cyclo-propyl-7-(4-methoxyphenyl)-3,4-dihydropyrrolo[1,2-a]pyrazine-2,8(1H)-dicarboxamide]
12 | 587 | CC(C)(C)NC(=O)N1CCn2c(c(C(N)=O)c(-c3ccc(C(=O)N4CCCC4)cc3)c2C2CC2)C1 [Compound 19, N^2-tert-butyl-6-cyclo-propyl-7-[4-(pyrrolidin-1-ylcarbonyl)phenyl]-3,4-dihydropyrrolo[1,2-a]pyrazine-2,8(1H)-dicarboxamide]
13 | 5 to 11 | CC(C)(C)NC(=O)N1CCn2c(c(C(N)=O)c(-c3cccc(F)c3)c2C2CC2)C1 [Compound 46, N^2-tert-butyl-6-cyclo-propyl-7-(3-fluorophenyl)-3,4-dihydropyrrolo[1,2-a]pyrazine-2,8(1H)-dicarboxamide]
14 | 3 to 6 | Cc1cccc(-c2c(C(N)=O)c3n(c2C2CC2)CCN(C(=O)NC(C)(C)C)C3)c1 [Compound 11, N^2-tert-butyl-6-cyclo-propyl-7-(3-methylphenyl)-3,4-dihydropyrrolo[1,2-a]pyrazine-2,8(1H)-dicarboxamide]
15 | 26 to 46 | CC(C)(C)NC(=O)N1CCn2c(c(C(N)=O)c(-c3cccc(C#N)c3)c2C2CC2)C1 [Compound 21, N^2-tert-butyl-7-(3-cyanophenyl)-6-cyclo-propyl-3,4-dihydropyrrolo[1,2-a]pyrazine-2,8(1H)-dicarboxamide]
16 | 65 | Cc1nnc(-c2ccc(-c3c(C(N)=O)c4n(c3C3CC3)CCN(C(=O)NC(C)(C)C)C4)cc2)o1 [Compound 23, N^2-tert-butyl-6-cyclo-propyl-7-[4-(5-methyl-1,3,4-oxadiazol-2-yl)phenyl]-3,4-dihydropyrrolo[1,2-a]pyrazine-2,8(1H)-dicarboxamide]
17 | 12 | CC(C)(C)NC(=O)N1CCn2c(c(C(N)=O)c(-c3ccccc3F)c2C2CC2)C1 [Compound 45, N^2-tert-butyl-6-cyclo-propyl-7-(2-fluorophenyl)-3,4-dihydropyrrolo[1,2-a]pyrazine-2,8(1H)-dicarboxamide]
18 | 62 | CC(C)(C)NC(=O)N1CCn2c(c(C(N)=O)c(-c3ccc(OCC4CC4)cc3)c2C2CC2)C1 [Compound 37, N^2-tert-butyl-6-cyclo-propyl-7-[4-(cyclo-propylmethoxy)phenyl]-3,4-dihydropyrrolo[1,2-a]pyrazine-2,8(1H)-dicarboxamide]
19 | 19 to 57 | CC(C)(C)NC(=O)N1CCn2c(c(C(N)=O)c(-c3cccc(C(F)(F)F)c3)c2C2CC2)C1 [Compound 16, N^2-tert-butyl-6-cyclo-propyl-7-[3-(trifluoromethyl)phenyl]-3,4-dihydropyrrolo[1,2-a]pyrazine-2,8(1H)-dicarboxamide]
20 | 1 | CC1(O)CCC(NC(=O)N2CCn3c(Cl)c(-c4cccc(F)c4)c(C(N)=O)c3C2)CC1 (stereo not drawn) [Compound 84, trans-6-chloro-7-(3-fluorophenyl)-N^2-(4-hydroxy-4-methyl-cyclo-hexyl)-3,4-dihydropyrrolo[1,2-a]pyrazine-2,8(1H)-dicarboxamide]
21 | 45 | CC(C)(C)CC(C)(C)NC(=O)N1CCn2c(c(C(N)=O)c(-c3ccccc3)c2C2CC2)C1 [Compound 52, 6-cyclo-propyl-7-phenyl-N^2-(2,4,4-trimethylpentan-2-yl)-3,4-dihydropyrrolo[1,2-a]pyrazine-2,8(1H)-dicarboxamide]
22 | 25 | CC(C)(C)NC(=O)N1CCn2c(c(C(N)=O)c(-c3cccc(OC(F)(F)F)c3)c2C2CC2)C1 [Compound 35, N^2-tert-butyl-6-cyclo-propyl-7-[3-(trifluoromethoxy)phenyl]-3,4-dihydropyrrolo[1,2-a]pyrazine-2,8(1H)-dicarboxamide]
23 | 450 to 1000 | CC(C)c1ccc(-c2c(C(N)=O)c3n(c2C2CC2)CCN(C(=O)NC(C)(C)C)C3)cc1 [Compound 13, N^2-tert-butyl-6-cyclo-propyl-7-[4-(iso-propyl)phenyl]-3,4-dihydropyrrolo[1,2-a]pyrazine-2,8(1H)-dicarboxamide]
24 | 5 to 29 | CC(C)(C)NC(=O)N1CCn2c(c(C(N)=O)c(-c3ccc(-n4cccn4)cc3)c2C2CC2)C1 [Compound 31, N^2-tert-butyl-6-cyclo-propyl-7-[4-(1H-pyrazol-1-yl)phenyl]-3,4-dihydropyrrolo[1,2-a]pyrazine-2,8(1H)-dicarboxamide]
25 | 620 | CON(C)C(=O)c1ccc(-c2c(C(N)=O)c3n(c2C2CC2)CCN(C(=O)NC(C)(C)C)C3)cc1 [Compound 20, N^2-tert-butyl-6-cyclo-propyl-7-{4-[methoxy(methyl)carbamoyl]phenyl}-3,4-dihydropyrrolo[1,2-a]pyrazine-2,8(1H)-dicarboxamide]
